Measured values published in the NIST ThermoML archive (doi:10.1016/j.fluid.2004.09.013).

Conditions: for mass density: Fluid (supercritical or subcritical phases), Vibrating tube method; for vapor or sublimation pressure: Liquid

C/C=C\C [(Z)-2-butene]
Conditions | mass density [kg/m3]
393.23 K, 9997 kPa | 513.82
393.23 K, 15000 kPa | 529.93
393.23 K, 20002 kPa | 542.79
393.23 K, 24993 kPa | 553.61
393.23 K, 29998 kPa | 563
393.23 K, 35001 kPa | 571.39
393.23 K, 39987 kPa | 578.89
398.23 K, 2818 kPa | 466.01
398.23 K, 4984 kPa | 481.85
398.23 K, 20014 kPa | 537.23
398.23 K, 25003 kPa | 548.52
398.23 K, 34998 kPa | 566.9
398.23 K, 39994 kPa | 574.66
398.24 K, 9988 kPa | 506.47
398.24 K, 14995 kPa | 523.68
398.24 K, 29983 kPa | 558.24
403.23 K, 3025 kPa | 454.7
403.23 K, 14991 kPa | 517.31
403.23 K, 25002 kPa | 543.35
403.23 K, 29989 kPa | 553.46
403.23 K, 34986 kPa | 562.37
403.23 K, 39984 kPa | 570.38
403.24 K, 4991 kPa | 471.74
403.24 K, 9985 kPa | 498.93
403.24 K, 20009 kPa | 531.6
408.23 K, 14993 kPa | 510.87
408.23 K, 29988 kPa | 548.67
408.23 K, 39992 kPa | 566.14
408.24 K, 3245 kPa | 443.06
408.24 K, 5000 kPa | 461.02
408.24 K, 10003 kPa | 491.26
408.24 K, 20000 kPa | 525.89
408.24 K, 25002 kPa | 538.19
408.24 K, 35001 kPa | 557.91
413.23 K, 34991 kPa | 553.36
413.23 K, 39999 kPa | 561.87
413.24 K, 3479 kPa | 430.52
413.24 K, 4987 kPa | 448.83
413.24 K, 9995 kPa | 483.23
413.24 K, 14993 kPa | 504.29
413.24 K, 20000 kPa | 520.13
413.24 K, 25001 kPa | 532.97
413.24 K, 29987 kPa | 543.83
418.23 K, 9989 kPa | 474.95
418.23 K, 29990 kPa | 538.98
418.24 K, 3727 kPa | 416.94
418.24 K, 4983 kPa | 435.78
418.24 K, 14999 kPa | 497.65
418.24 K, 19989 kPa | 514.28
418.24 K, 24991 kPa | 527.69
418.24 K, 35007 kPa | 548.86
418.24 K, 40000 kPa | 557.55
423.24 K, 3987 kPa | 401.93
423.24 K, 4998 kPa | 421.22
423.24 K, 9996 kPa | 466.36
423.24 K, 14993 kPa | 490.76
423.24 K, 19998 kPa | 508.37
423.24 K, 24983 kPa | 522.32
423.24 K, 30000 kPa | 534.08
423.24 K, 34984 kPa | 544.2
423.24 K, 39995 kPa | 553.2
428.24 K, 4261 kPa | 385.43
428.24 K, 4996 kPa | 404.14
428.24 K, 10003 kPa | 457.53
428.24 K, 14984 kPa | 483.8
428.24 K, 20011 kPa | 502.46
428.24 K, 24985 kPa | 517
428.24 K, 29987 kPa | 529.17
428.24 K, 34985 kPa | 539.65
428.24 K, 40008 kPa | 548.93
433.24 K, 4552 kPa | 367.25
433.24 K, 5002 kPa | 383.51
433.24 K, 9988 kPa | 448.25
433.24 K, 15006 kPa | 476.83
433.24 K, 20002 kPa | 496.43
433.24 K, 24994 kPa | 511.67
433.24 K, 29984 kPa | 524.27
433.24 K, 35007 kPa | 535.14
433.24 K, 39990 kPa | 544.63
438.24 K, 5016 kPa | 356.57
438.24 K, 9984 kPa | 438.25
438.24 K, 15001 kPa | 469.64
438.24 K, 20003 kPa | 490.38
438.24 K, 24991 kPa | 506.29
438.24 K, 29997 kPa | 519.4
438.24 K, 35007 kPa | 530.6
438.24 K, 39994 kPa | 540.34
443.23 K, 5019 kPa | 312.48
443.24 K, 10006 kPa | 428.67
443.24 K, 14981 kPa | 462.28
443.24 K, 20008 kPa | 484.35
443.24 K, 24985 kPa | 500.93
443.24 K, 29991 kPa | 514.54
443.24 K, 34987 kPa | 526.05
443.24 K, 39991 kPa | 536.15
448.23 K, 5020 kPa | 224.32
448.24 K, 9992 kPa | 418.15
448.24 K, 15006 kPa | 454.98
448.24 K, 20001 kPa | 478.13
448.24 K, 24996 kPa | 495.5
448.24 K, 30011 kPa | 509.66
448.24 K, 34990 kPa | 521.51
448.24 K, 39989 kPa | 531.87
453.24 K, 5018 kPa | 172.57
453.24 K, 9981 kPa | 407.03
453.24 K, 14999 kPa | 447.35
453.24 K, 20011 kPa | 471.95
453.24 K, 24994 kPa | 490.05

Conditions | vapor or sublimation pressure [kPa]
396.4 K | 2209.3
400.36 K | 2343.2
407.79 K | 2693.7
414.25 K | 3004.6
416.29 K | 3089.5
422.73 K | 3456.3
425.59 K | 3598.4
430.42 K | 3884.7
433.88 K | 4101.1
